Data set [1] can be described thus: Half life in ip dosed mouse. It counts as ADME, organism-based. The following applies: in vivo.
The test system of data set [2] is HCT-116. Put plainly: Cytotoxicity against human HCT-116 cells assessed as decrease in cell viability incubated for 48 hrs by SRB assay. The format is functional, cell-based. The following applies: HCT-116, 48 h. A general note: The SRB assay estimates cell density from bound dye.
Data set [3] has as its system HT-29. Nature of the data set: Cytotoxicity against human HT-29 cells assessed as decrease in cell viability incubated for 48 hrs by SRB assay. It counts as functional, cell-based. The following applies: HT-29, 48 h.
The test system of data set [4] is HCT-15. Put plainly: Cytotoxicity against human HCT-15 cells assessed as decrease in cell viability incubated for 48 hrs by SRB assay. It counts as functional, cell-based. The following applies: HCT-15, 48 h.
Data set [5] relates to SW480. Put plainly: Cytotoxicity against human SW480 cells assessed as decrease in cell viability incubated for 48 hrs by SRB assay. The format is functional, cell-based. The following applies: SW480, 48 h.
The test system of data set [6] is SW-620. Put plainly: Cytotoxicity against human SW620 cells assessed as decrease in cell viability incubated for 48 hrs by SRB assay. It counts as functional, cell-based. The following applies: SW-620, 48 h.
For data set [7], the system named is RKO. Nature of the data set: Cytotoxicity against human RKO cells assessed as decrease in cell viability incubated for 48 hrs by SRB assay. It counts as functional, cell-based.

A word on the half-life: it is the time in which the quantity being followed falls by half. A higher half-life goes with slow loss. A word on the IC50: it is the point on the concentration scale where inhibition reaches its midpoint. On to `O=c1[nH]cc(F)c(=O)[nH]1` [FLUOROURACIL], for which the half-life in data set [1] was 1.36 h. Further, the half-inhibitory concentration (IC50) in data set [2], in data set [3], in data set [4], in data set [5], in data set [6] and in data set [7] was 12 µM in each case.

Source of the values: ChEMBL document CHEMBL5390201, “The Natural Alkaloid (-)-N-Hydroxyapiosporamide Suppresses Colorectal Tumor Progression as an NF-κB Pathway Inhibitor by Targeting the TAK1-TRAF6 Complex” (J Nat Prod, 2023).
